Test [1] has as its system Ba/F3-AXL cells. Kind of test: Assay for inhibiting the proliferation of Ba/F3-AXL cells (CCK-8). The format is cell-based. The conditions noted are these: 72 hours of incubation, medium with 100 ng/mL hGas6, CCK-8. As to the method: The values were then imported into Graphpad Prism 5 software for curve fitting, and IC50 was calculated.
Test [2] addresses TRKA kinase (Homo sapiens (Human), UniProt P04629). Briefly: Assay of small molecular compounds for inhibiting the activity of TRKA kinase (LANCE TR-FRET). The format is biochemical. The procedure, abridged:
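LANCE TR-FRET with ULight-TK peptide; compounds pre-incubated 5 min with TRKA (2× solution 2 nM), then substrate/ATP added (4× mix: 400 nM peptide, 40 μM ATP). Reaction 60 min at room temperature in dark, 1% DMSO final; stopped, detection developed 60 min, signal read.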
(In TR-FRET formats the signal depends on donor and acceptor labels being close together.)

Test [3] has as its system Ba/F3 LMNA-NTRK1 cells. Kind of test: Assay for inhibiting the proliferation of Ba/F3 LMNA-NTRK1 cells (CCK-8). Type of test: cell-based. The conditions noted are these: Mus musculus, BaF3. The procedure, abridged:
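Cells were seeded and cultured overnight, then treated with graded compound concentrations (final DMSO 0.25%) for 72 h. CCK-8 was added for 1–2 h at 37 °C and OD450 read. Survival was normalised to untreated and cell-free blank wells, and IC50 was fitted.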

Test [4] deals with MER kinase (Homo sapiens (Human), UniProt Q12866). Kind of test: Assay of small molecular compounds for inhibiting the activity of MER kinase (LANCE TR-FRET). The format is biochemical. The procedure, abridged: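 MER kinase preincubated 5 min at RT with compound (11 points, 0.042-2500 nM final), then ULight-poly GT and ATP added (4× stocks 200 nM and 20 μM) for 60 min at RT, 1% DMSO. Phosphorylation detected by LANCE TR-FRET; IC50 from % inhibition versus controls.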
MER kinase, sequence (Q12866 21-999): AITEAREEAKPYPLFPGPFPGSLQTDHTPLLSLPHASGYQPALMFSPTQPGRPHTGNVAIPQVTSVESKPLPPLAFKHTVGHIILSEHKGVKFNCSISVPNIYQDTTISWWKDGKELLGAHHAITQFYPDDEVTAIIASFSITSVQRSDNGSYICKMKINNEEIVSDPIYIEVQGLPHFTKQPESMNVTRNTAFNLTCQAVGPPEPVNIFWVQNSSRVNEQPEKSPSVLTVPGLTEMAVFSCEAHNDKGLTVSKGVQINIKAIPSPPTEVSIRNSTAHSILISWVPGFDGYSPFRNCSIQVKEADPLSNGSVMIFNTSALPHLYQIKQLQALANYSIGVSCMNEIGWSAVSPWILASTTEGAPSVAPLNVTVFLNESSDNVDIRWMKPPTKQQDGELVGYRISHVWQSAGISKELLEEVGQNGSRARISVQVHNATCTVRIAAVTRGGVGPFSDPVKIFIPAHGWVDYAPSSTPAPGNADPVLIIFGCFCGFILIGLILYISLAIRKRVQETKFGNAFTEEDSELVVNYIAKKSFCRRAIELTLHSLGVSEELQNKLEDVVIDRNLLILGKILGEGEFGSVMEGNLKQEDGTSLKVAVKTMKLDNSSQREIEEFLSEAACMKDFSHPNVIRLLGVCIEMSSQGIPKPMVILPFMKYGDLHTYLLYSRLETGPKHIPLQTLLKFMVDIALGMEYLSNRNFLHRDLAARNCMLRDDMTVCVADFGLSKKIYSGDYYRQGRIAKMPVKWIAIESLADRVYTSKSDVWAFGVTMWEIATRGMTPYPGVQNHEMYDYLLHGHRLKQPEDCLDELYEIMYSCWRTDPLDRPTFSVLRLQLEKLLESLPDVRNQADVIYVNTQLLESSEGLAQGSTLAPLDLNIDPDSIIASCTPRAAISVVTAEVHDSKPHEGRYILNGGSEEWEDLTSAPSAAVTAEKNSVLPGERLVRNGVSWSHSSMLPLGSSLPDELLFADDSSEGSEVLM

TRKA kinase, sequence (P04629 33-796): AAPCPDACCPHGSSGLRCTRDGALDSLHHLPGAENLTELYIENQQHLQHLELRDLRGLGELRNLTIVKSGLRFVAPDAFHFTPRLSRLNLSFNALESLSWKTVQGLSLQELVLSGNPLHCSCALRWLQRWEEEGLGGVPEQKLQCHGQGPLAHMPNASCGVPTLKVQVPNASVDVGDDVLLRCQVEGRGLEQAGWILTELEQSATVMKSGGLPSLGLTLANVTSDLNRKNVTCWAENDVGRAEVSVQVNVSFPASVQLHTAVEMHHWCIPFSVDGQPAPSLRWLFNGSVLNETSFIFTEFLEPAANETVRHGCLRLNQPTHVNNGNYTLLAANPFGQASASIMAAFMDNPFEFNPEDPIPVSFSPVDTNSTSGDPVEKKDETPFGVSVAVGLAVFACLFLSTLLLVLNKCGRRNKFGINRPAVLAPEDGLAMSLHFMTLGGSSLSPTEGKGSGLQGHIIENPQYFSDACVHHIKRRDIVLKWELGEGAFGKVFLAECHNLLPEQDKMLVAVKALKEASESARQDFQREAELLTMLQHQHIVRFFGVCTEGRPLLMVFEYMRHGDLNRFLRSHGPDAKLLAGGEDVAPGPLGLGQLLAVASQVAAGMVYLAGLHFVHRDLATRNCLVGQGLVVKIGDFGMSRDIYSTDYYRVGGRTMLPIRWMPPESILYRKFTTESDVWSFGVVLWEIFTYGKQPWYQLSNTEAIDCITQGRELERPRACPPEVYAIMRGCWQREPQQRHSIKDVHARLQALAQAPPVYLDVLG

`CC(C)n1cc(C(=O)Nc2ccc(Oc3ccnc4cc(OCCCN(C)C5CCC5)c5c(c34)OCCO5)c(F)c2)c(=O)n(-c2ccc(F)cc2)c1=O` [Example 96, N-(3-fluoro-4-((5-(3-((cyclobutyl)(methyl)amino)propoxy)-2,3-dihydro-[1,4]dioxino[2,3-f]quinolin-10-yl)oxy)phenyl)-3-(4-fluorophenyl)-1-isopropyl-2,4-dioxo-1,2,3,4-tetrahydropyrimidine-5-carboxamide]: the IC50 in test [1] was less than 0.05 µM; in test [2] it was less than 0.05 µM; in test [3], less than 0.05 µM; in test [4] it was no more than 0.05 µM.

In the case of `Cn1cc(C(=O)Nc2ccc(Oc3ccnc4cc(OCCCN5CCCCC5)c5c(c34)OCCO5)c(F)c2)c(=O)n(-c2ccc(F)cc2)c1=O` [Example 39, N-(3-fluoro-4-((5-(3-(piperidin-1-yl)propoxy)-2,3-dihydro-[1,4]dioxino[2,3-f]quinolin-10-yl)oxy)phenyl)-3-(4-fluorophenyl)-1-methyl-2,4-dioxo-1,2,3,4-tetrahydropyrimidine-5-carboxamide], the IC50 in test [1] was less than 0.05 µM; in test [2], less than 0.05 µM; in test [3], less than 0.05 µM; in test [4], no more than 0.05 µM.

Consider `CCn1cc(C(=O)Nc2ccc(Oc3ccnc4cc(OC)c5c(c34)OCCO5)c(F)c2)c(=O)n(-c2ccc(F)cc2)c1=O` [Example 37, N-(3-fluoro-4-((5-methoxy-2,3-dihydro-[1,4]dioxino[2,3-f]quinolin-10-yl)oxy)phenyl)-3-(4-fluorophenyl)-1-ethyl-2,4-dioxo-1,2,3,4-tetrahydropyrimidine-5-carboxamide], for which the IC50 in test [1] is less than 0.05 µM; in test [2], less than 0.05 µM; in test [3], less than 0.05 µM; in test [4], no more than 0.05 µM.

With `COc1ccn(-c2ccc(F)cc2)c(=O)c1C(=O)Nc1ccc(Oc2ccnc3cc(OCCCC#N)c4c(c23)OCCO4)cc1Cl` [Example 132, N-(2-chloro-4-((5-(3-cyanopropoxy)-2,3-dihydro-[1,4]dioxino[2,3-f]quinolin-10-yl)oxy)phenyl)-1-(4-fluorophenyl)-4-methoxy-2-oxo-1,2-dihydropyridine-3-carboxamide], the IC50 is less than 0.05 µM in test [1], less than 0.05 µM in test [2], less than 0.05 µM in test [3] and no more than 0.05 µM in test [4].

For the compound `COc1cc2nccc(Oc3ccc(NC(=O)c4cn(CC(=O)O)c(=O)n(-c5ccc(F)cc5)c4=O)cc3F)c2c2c1OCCO2` [Example 104, 2-(5-((3-fluoro-4-((5-methoxy-2,3-dihydro-[1,4]dioxino[2,3-f]quinolin-10-yl)oxy)phenyl)carbamoyl)-3-(4-fluorophenyl)-2,4-dioxo-3,4-dihydropyrimidin-1(2H)-yl)acetic acid], the IC50 in test [1] is greater than 5 µM; in test [2], less than 0.05 µM; in test [3] it was greater than 1 µM; in test [4] it was no more than 0.05 µM.

For the compound `CCn1cc(C(=O)Nc2ccc(Oc3ccnc4cc(OCCCN5CCOCC5)c5c(c34)OCCO5)c(F)c2)c(=O)n(-c2ccc(F)cc2)c1=O` [Example 38, N-(3-fluoro-4-((5-(3-morpholinopropoxy)-2,3-dihydro-[1,4]dioxino[2,3-f]quinolin-10-yl)oxy)phenyl)-3-(4-fluorophenyl)-1-ethyl-2,4-dioxo-1,2,3,4-tetrahydropyrimidine-5-carboxamide], the IC50 is less than 0.05 µM in test [1], less than 0.05 µM in test [2], less than 0.05 µM in test [3] and no more than 0.05 µM in test [4].

As to `CCOc1ccn(-c2ccc(F)cc2)c(=O)c1C(=O)Nc1ccc(Oc2ccnc3cc(OCCCC#N)c4c(c23)OCCO4)cc1Cl` [Example 134, N-(2-chloro-4-((5-(3-cyanopropoxy)-2,3-dihydro-[1,4]dioxino[2,3-f]quinolin-10-yl)oxy)phenyl)-1-(4-fluorophenyl)-4-ethoxy-2-oxo-1,2-dihydropyridine-3-carboxamide], the IC50 is less than 0.05 µM in test [1], less than 0.05 µM in test [2], less than 0.05 µM in test [3] and no more than 0.05 µM in test [4].

Regarding `COCCOc1cc2nccc(Oc3ccc(NC(=O)c4cn(C)c(=O)n(-c5ccc(F)cc5)c4=O)cc3F)c2c2c1OCCO2` [Example 42, N-(3-fluoro-4-((5-(2-methoxyethoxy)-2,3-dihydro-[1,4]dioxino[2,3-f]quinolin-10-yl)oxy)phenyl)-3-(4-fluorophenyl)-1-methyl-2,4-dioxo-1,2,3,4-tetrahydropyrimidine-5-carboxamide], the IC50 in test [1] is less than 0.05 µM; in test [2], less than 0.05 µM; in test [3], less than 0.05 µM; in test [4] it was no more than 0.05 µM.

As for `COc1ccn(-c2ccc(F)cc2)c(=O)c1C(=O)Nc1ccc(Oc2ccnc3cc(OCCCN4CCCCC4)c4c(c23)OCCO4)c(F)c1` [Example 32, N-(3-fluoro-4-((5-(3-(piperidin-1-yl)propoxy)-2,3-dihydro-[1,4]dioxino[2,3-f]quinolin-10-yl)oxy)phenyl)-1-(4-fluorophenyl)-4-methoxy-2-oxo-1,2-dihydropyridine-3-carboxamide], the IC50 was less than 0.05 µM in test [1], less than 0.05 µM in test [2], less than 0.05 µM in test [3] and no more than 0.05 µM in test [4].

Turning to `Cn1cc(C(=O)Nc2ccc(Oc3ccnc4cc(OCCCN5CCOCC5)c5c(c34)OCCO5)cc2Cl)c(=O)n(-c2ccc(F)cc2)c1=O` [Example 98, N-(2-chloro-4-((5-(3-morpholinopropoxy)-2,3-dihydro-[1,4]dioxino[2,3-f]quinolin-10-yl)oxy)phenyl)-3-(4-fluorophenyl)-1-methyl-2,4-dioxo-1,2,3,4-tetrahydropyrimidine-5-carboxamide], the IC50 is less than 0.05 µM in test [1], less than 0.05 µM in test [2], less than 0.05 µM in test [3] and no more than 0.05 µM in test [4].

`CC(C)n1cc(C(=O)Nc2ccc(Oc3ccnc4cc(OCCCN5CCOCC5)c5c(c34)OCCO5)c(F)c2)c(=O)n(-c2ccc(F)cc2)c1=O` [Example 16, N-(3-fluoro-4-((5-(3-morpholinopropoxy)-2,3-dihydro-[1,4]dioxino[2,3-f]quinolin-10-yl)oxy)phenyl)-3-(4-fluorophenyl)-1-isopropyl-2,4-dioxo-1,2,3,4-tetrahydropyrimidine-5-carboxamide]: the half-maximal inhibitory concentration (IC50) is less than 0.05 µM in test [1], less than 0.05 µM in test [2], less than 0.05 µM in test [3] and no more than 0.05 µM in test [4].

As for `COCCOc1cc2nccc(Oc3ccc(NC(=O)c4c(OC)ccn(-c5ccc(F)cc5)c4=O)cc3F)c2c2c1OCCO2` [Example 35, N-(3-fluoro-4-((5-(2-methoxyethoxy)-2,3-dihydro-[1,4]dioxino[2,3-f]quinolin-10-yl)oxy)phenyl)-1-(4-fluorophenyl)-4-methoxy-2-oxo-1,2-dihydropyridine-3-carboxamide], the concentration for half-maximal inhibition (IC50) was less than 0.05 µM in test [1], less than 0.05 µM in test [2], less than 0.05 µM in test [3] and no more than 0.05 µM in test [4].

`COc1cc2nccc(Oc3ccc(NC(=O)c4c(OC)ccn(-c5ccc(F)cc5)c4=O)cc3F)c2c2c1OCCO2` [Example 18, N-(3-fluoro-4-((5-methoxy-2,3-dihydro-[1,4]dioxino[2,3-f]quinolin-10-yl)oxy)phenyl)-1-(4-fluorophenyl)-4-methoxy-2-oxo-1,2-dihydropyridine-3-carboxamide]: the IC50 in test [1] is less than 0.05 µM; in test [2], less than 0.05 µM; in test [3] it was less than 0.05 µM; in test [4], no more than 0.05 µM.

As to `CC(C)n1cc(C(=O)Nc2ccc(Oc3ccnc4cc(OCC(C)(C)O)c5c(c34)OCCO5)c(F)c2)c(=O)n(-c2ccc(F)cc2)c1=O` [Example 122, N-(3-fluoro-4-((5-(2-hydroxy-2-methylpropoxy)-2,3-dihydro-[1,4]dioxino[2,3-f]quinolin-10-yl)oxy)phenyl)-3-(4-fluorophenyl)-1-isopropyl-2,4-dioxo-1,2,3,4-tetrahydropyrimidine-5-carboxamide], the IC50 is less than 0.05 µM in test [1], less than 0.05 µM in test [2], less than 0.05 µM in test [3] and no more than 0.05 µM in test [4].

As for `CC(C)n1cc(C(=O)Nc2ccc(Oc3ccnc4cc(OCCCN5CCC(C)(O)CC5)c5c(c34)OCCO5)c(F)c2)c(=O)n(-c2ccc(F)cc2)c1=O` [Example 94, N-(3-fluoro-4-((5-(3-(4-methyl-4-hydroxypiperidin-1-yl)propoxy)-2,3-dihydro-[1,4]dioxino[2,3-f]quinolin-10-yl)oxy)phenyl)-3-(4-fluorophenyl)-1-isopropyl-2,4-dioxo-1,2,3,4-tetrahydropyrimidine-5-carboxamide], the concentration for half-maximal inhibition (IC50) was less than 0.05 µM in test [1], less than 0.05 µM in test [2], 0.05 to 0.2 µM in test [3] and no more than 0.05 µM in test [4].

With `CCOc1ccn(-c2ccc(F)cc2)c(=O)c1C(=O)Nc1ccc(Oc2ccnc3cc(OCC4(N)CC4)c4c(c23)OCCO4)c(F)c1` [Example 105, N-(4-((5-((1-aminocyclopropyl)methoxy)-2,3-dihydro-[1,4]dioxino[2,3-f]quinolin-10-yl)oxy)-3-fluorophenyl)-4-ethoxy-1-(4-fluorophenyl)-2-oxo-1,2-dihydropyridine-3-carboxamide], the IC50 in test [1] is less than 0.05 µM; in test [2], less than 0.05 µM; in test [3], 0.05 to 0.2 µM; in test [4] it was no more than 0.05 µM.

The IC50 is the concentration that gives 50% inhibition. Lower therefore signals greater potency.

Source of the values: patent US12202835B2, “Substituted aromatic ring-linked dioxinoquinazolines and dioxinoquinolines as kinase inhibitors” (BEIJING SCITECH-MQ PHARMACEUTICALS LIMITED, priority 2018, dated 2025).
